# Experimental data reported in patent US10561676B2, “Method for treating cancer using dual antagonists of CXCR1 and CXCR2” (Syntrix Biosystems, Inc., priority 2018, dated 2020).
# Experiments:
# [1] = system: LLC syngeneic mouse model of lung cancer; experiment: LLC syngeneic mouse model of lung cancer; assay type: in vivo
# Procedure: The Lewis lung carcinoma (LLC) mouse model (Kellar, 2015, Biomed Res Int, 2015:621324, herein incorporated by reference) was used to evaluate the effect of SX-682 alone and in combination with anti-PD-1 antibody. LLC mouse […] cells were cultured, then mice were injected with 0.5×10^6 LLC cells on day 0, and on day 18 treatment was initiated. Mice were treated with vehicle (control), SX-682 alone (50 mg/kg twice daily, oral), anti-PD-1 alone (100 μg twice weekly, i.p.), or SX-682 in combination with anti-PD-1 (N=5 per cohort). SX-682 was used as a spray dried dispersion (Formulation Example 1), and was administered to mice via oral gavage as a suspension in 0.5% aq. methylcellulose.
# Sprague-Dawley rats = experiment: Ozone rat model of pulmonary inflammation (neutrophil influx into BALF); assay type: in vivo
# Procedure: SX-682 was assayed in an in vivo rat model of pulmonary inflammation. Activity in this model of pulmonary inflammation provides evidence that supports the use of SX-682 in the treatment of a number of pulmonary inflammatory diseases, including chronic obstructive pulmonary disease (COPD) and bronchopulmonary dysplasia (BPD). In this experiment, Sprague-Dawley rats (n=4 per cohort) were dosed intravenously only once at t=0 with either vehicle control (dimethylformamide/PEG400/saline, 40:40:20), positive inhibitor control (SX-576, 1 mg/kg) or the test compound (SX-682, 1 mg/kg). The rats were then placed in air (negative exposure group; vehicle control only) or 1 ppm ozone (positive exposure group; vehicle control, positive inhibitor control SX-576, and test compound SX-682) for 4 hours. The rats were then sacrificed at t=24 hours, and the bronchoalveolar lavage fluid (BALF) was collected. The cells were spun down, stained with Wright-Giemsa and counted. In the negative exposure group, no neutrophils were observed when stained. In the ozone exposed rats treated with vehicle however, there was a brisk influx of neutrophils of approximately 14,000 per mL of BALF (FIG. 5).
# [2] = system: Ptenpc−/−p53pc−/−Smad4pc−/− mice; experiment: Ptenpc−/−p53pc−/−Smad4pc−/− mouse model of castration resistant prostate cancer; assay type: in vivo; settings: 4-6 weeks
# Procedure: The genetically engineered Ptenpc−/−p53pc−/−Smad4pc−/− mouse is a prostate-specific PB promoter-driven (PB-Cre4) conditional triple knockout model (i.e., prostate-specific deletion of all three tumor suppressors, Pten, p53 and Smad4 occurs in the ‘prostate cancer’ or ‘pc’). […] SX-682 was used as a spray dried dispersion (Formulation Example 1), and was administered to mice via oral gavage as a suspension in 0.5% aq. methylcellulose. Treatment was continued for 4-6 weeks and prostate weights measured to determine tumor burden. […] Mean+SE.
# [3] = system: 60 human tumor cell line panel; experiment: 60 human tumor cell line panel proliferation (SRB); assay type: cell-based; settings: 0.01-100 μM, 48 h
# Procedure: The chemokine CXCL8 and its receptors CXCR1 and CXCR2 have been identified as important mediators of cellular proliferation for a number of tumor cell types.
# The human tumor cell lines of the cancer screening panel were grown in RPMI 1640 medium containing 5% fetal bovine serum and 2 mM L-glutamine. […] After cell inoculation, the microtiter plates were incubated at 37° C., 5% CO2, 95% air and 100% relative humidity for 24 h prior to addition of SX-682.
# After 24 h, two plates of each cell line are fixed in situ with TCA, to represent a measurement of the cell population for each cell line at the time of drug addition (Tz). […]
# Following drug addition, the plates were incubated for an additional 48 h at 37° C., 5% CO2, 95% air, and 100% relative humidity. […] Bound stain was subsequently solubilized with 10 mM TRIS, and the absorbance was read on an automated plate reader at a wavelength of 515 nm. […] Using the seven absorbance measurements (time zero, (Tz), control growth, (C), and test growth in the presence of drug at the five concentration levels (Ti)), the percentage growth was calculated at each of the drug concentrations levels. Percentage growth inhibition was calculated as: (Ti−Tz)/(C−Tz)×100 for concentrations for which Ti>/=Tz (Ti−Tz)/Tz×100 for concentrations for which Ti<Tz.
# Three dose response parameters were calculated for each experimental agent. […]
structure (smiles),measurement,setting,value
"O=C(Nc1ccc(F)cc1)c1cnc(SCc2cc(OC(F)(F)F)ccc2B(O)O)nc1 [SX-682, 2-(2-boronic acid-5-trifluoromethoxy-benzylsulfanyl)-pyrimidine-5-carboxylic acid (4-fluoro-phenyl)-amide]","tumor growth, SX-682 monotherapy","[1]; 50 mg/kg twice daily, oral",significantly slowed tumor growth
same,"tumor growth, SX-682 in combination with anti-PD-1",[1]; SX-682 50 mg/kg twice daily oral + anti-PD-1 100 μg twice weekly i.p.,significantly better than either therapy alone
same,"survival, SX-682 in combination with anti-PD-1","[1]; vs vehicle or anti-PD-1 alone, up to 66 days",significantly enhanced survival
same,influx of neutrophils into the lungs (BALF) vs vehicle,"Sprague-Dawley rats; 1 mg/kg i.v. once, 1 ppm ozone 4 hours, BALF at 24 hours",significantly decreased the influx of neutrophils
same,time inhibition of neutrophil influx into BALF is sustained,Sprague-Dawley rats; single dose of 1 mg/kg i.v.,24 h
same,"prostate weight (tumor burden), SX-682 alone",[2]; 50 mg/kg b.i.d. oral gavage,inhibited prostate cancer
same,"prostate weight (tumor burden), SX-682 plus ICB",[2]; SX-682 50 mg/kg b.i.d. oral + anti-PD1 and anti-CTLA4 200 μg each 3×/week,significantly better than control or either treatment alone
same,tumor cell proliferation,[3],directly affect the proliferation of human tumor cells
